One assay concerns the target T1, integrin α4β7 (Homo sapiens, UniProt P13612+P26010).
T1 construct: lymphoma cell strain RPMI-8866 of human B cells, known to express integrin α4β7; endogenous in cells; host or cells: RPMI-8866
T1 sequence (P13612 34-1032): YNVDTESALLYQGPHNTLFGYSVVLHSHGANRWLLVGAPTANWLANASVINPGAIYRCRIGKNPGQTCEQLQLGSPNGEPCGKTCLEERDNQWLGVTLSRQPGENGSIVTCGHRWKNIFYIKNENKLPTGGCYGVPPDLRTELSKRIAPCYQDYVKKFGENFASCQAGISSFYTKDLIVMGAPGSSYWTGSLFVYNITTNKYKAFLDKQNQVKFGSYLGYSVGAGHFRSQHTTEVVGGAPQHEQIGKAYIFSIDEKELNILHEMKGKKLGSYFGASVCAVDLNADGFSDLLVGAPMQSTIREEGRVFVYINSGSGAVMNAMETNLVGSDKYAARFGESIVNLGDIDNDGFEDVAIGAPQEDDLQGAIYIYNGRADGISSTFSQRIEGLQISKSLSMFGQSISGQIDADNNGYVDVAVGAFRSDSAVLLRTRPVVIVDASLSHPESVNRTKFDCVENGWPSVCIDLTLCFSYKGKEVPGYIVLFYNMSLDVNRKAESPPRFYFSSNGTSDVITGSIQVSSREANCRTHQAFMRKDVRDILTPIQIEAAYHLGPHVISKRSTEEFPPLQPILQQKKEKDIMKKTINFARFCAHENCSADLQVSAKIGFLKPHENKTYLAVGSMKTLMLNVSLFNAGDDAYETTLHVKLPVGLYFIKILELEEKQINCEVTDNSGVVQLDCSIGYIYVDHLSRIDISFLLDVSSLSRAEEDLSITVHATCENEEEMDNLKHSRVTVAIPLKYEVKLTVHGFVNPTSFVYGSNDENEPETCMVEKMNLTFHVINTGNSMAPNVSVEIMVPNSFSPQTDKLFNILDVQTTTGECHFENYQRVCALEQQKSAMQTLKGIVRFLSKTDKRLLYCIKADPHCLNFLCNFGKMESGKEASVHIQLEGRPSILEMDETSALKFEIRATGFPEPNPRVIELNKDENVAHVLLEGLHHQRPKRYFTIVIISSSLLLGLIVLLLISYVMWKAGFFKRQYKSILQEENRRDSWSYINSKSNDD
T1 sequence (P26010 20-798): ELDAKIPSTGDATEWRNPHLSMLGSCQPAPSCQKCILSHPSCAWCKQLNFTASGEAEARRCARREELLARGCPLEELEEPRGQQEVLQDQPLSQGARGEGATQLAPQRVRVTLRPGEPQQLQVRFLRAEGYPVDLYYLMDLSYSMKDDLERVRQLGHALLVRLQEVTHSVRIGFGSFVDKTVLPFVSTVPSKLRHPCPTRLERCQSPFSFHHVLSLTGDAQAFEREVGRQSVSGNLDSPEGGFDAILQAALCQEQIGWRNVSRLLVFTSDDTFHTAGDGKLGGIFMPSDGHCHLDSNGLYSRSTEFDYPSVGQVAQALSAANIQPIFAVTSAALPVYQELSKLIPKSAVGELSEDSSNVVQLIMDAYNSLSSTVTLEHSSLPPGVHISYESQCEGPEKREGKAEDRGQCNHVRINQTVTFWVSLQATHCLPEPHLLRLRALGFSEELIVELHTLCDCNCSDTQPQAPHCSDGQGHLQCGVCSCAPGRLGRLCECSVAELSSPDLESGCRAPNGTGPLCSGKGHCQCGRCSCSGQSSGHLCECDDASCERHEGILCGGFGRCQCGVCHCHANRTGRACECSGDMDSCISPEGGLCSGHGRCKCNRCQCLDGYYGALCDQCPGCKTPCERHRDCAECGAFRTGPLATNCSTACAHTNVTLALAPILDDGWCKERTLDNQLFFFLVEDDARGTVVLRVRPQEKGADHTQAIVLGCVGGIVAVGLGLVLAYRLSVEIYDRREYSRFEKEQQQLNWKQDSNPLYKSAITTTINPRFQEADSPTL
As to the kind of experiment: VCAM antagonistic activity (VCAM-1/α4β7 binding assay), RPMI-8866 cells binding to VCAM-1. It counts as cell-based. To be noted: RPMI-8866 human B lymphoma cells binding to recombinant human VCAM-1; binding buffer with 4 mM MnCl2. The procedure:
VCAM Antagonistic Activity (VCAM-1/α4β7 Binding Assay)
The capacity of a test substance antagonistic to the binding of lymphoma cell strain RPMI-8866 of human B cells, known to express integrin α4β7, to VCAM-1 was determined.
(§1) 100 μl/well of a solution (500 ng/ml) of recombinant human VCAM-1 (R & D systems) solution diluted with buffer A (0.1 M NaHCO3, pH 9.6) was added to a micro titer plate having 96 wells (Nunc Maxisorp). After the incubation at 4° C. overnight, unbound VCAM-1 was removed by washing once with PBS. After completion of the washing, a buffer (buffer B) obtained by diluting Block Ace (Dainippon Pharmaceutical Co., Ltd.) with PBS to ¼ concentration was added in an amount of 150 μl/well. After the incubation at room temperature for 1 hour, buffer B was removed and the plate was washed with PBS once.
RPMI-8866 cells were washed with DMEM twice and incubated in Dulbecco modified Eagle medium containing 10 μg/ml of Calcein-AM (Wako Pure Chemical Industries, Ltd.) (SIGMA, hereinafter referred to as “DMEM”) in dark place at 37° C. for 30 minutes to label with fluorescence. The cells were again suspended in a binding buffer (20 mM HEPES, DMEM containing 0.1% BSA) containing 4 mM of MnCl2.
(§2) 50 μl of a test substance of various concentrations obtained by the dilution with the binding buffer was added to the plate. Immediately thereafter, 50 μl (final volume: 100 μl/well) of the fluorescent RPMI-8866 cells (4×10^6 cells/ml) were added thereto, and they were incubated in dark place at room temperature for 30 minutes. After the shaking on a plate shaker (IKA MTS-4) at 800 rpm for 30 seconds, the solution was immediately removed to remove the unbound cells. The fluorescence quantity of the bound cells remaining in the wells was determined with a fluorescent plate reader (Wallac 1420 ARVO multi-label counter) (filter excitation wave length: 485 nm, emission wave length: 535 nm). The fluorescent strength thus obtained is proportional to the number of RPMI-8866 cells bound to VCAM-1 and remaining on the plate. The binding rate of each test material in various concentrations was determined while the fluorescent strength of the test material-free well was determined to be 100%.

The next assay concerns the target T2, integrin α4β1 (Homo sapiens, UniProt P05556+P13612).
T2 construct: cell strain Jurkat (ATCC TIB-152) of human T cells, known to express integrin α4β1; endogenous in cells; host or cells: Jurkat (ATCC TIB-152)
Put plainly: VCAM antagonist activity (VCAM-1/α4β1 binding assay), Jurkat cells binding to VCAM-1. Conditions: Jurkat human T cells binding to recombinant human VCAM-1; read-out: VCAM antagonistic activity (IC50) α4β1. It counts as cell-based. The procedure:
VCAM Antagonist Activity (VCAM-1/α4β1 Binding Assay)
The capacity of a test substance antagonistic to the binding of cell strain Jurkat (ATCC TIB-152) of human T cells, known to express integrin α4β1, to VCAM-1 was determined.
as §1
Jurkat cells were washed with Dulbecco modified Eagle medium (SIGMA, hereinafter referred to as “DMEM”) twice and then incubated in DMEM containing 10 μg/ml of Calcein-AM (Wako Pure Chemical Industries, Ltd.) at 37° C. in dark place for 30 minutes to label with fluorescence. The cells were again suspended in a binding buffer (20 mM HEPES, DMEM containing 0.1% BSA).
as §2, with “Jurkat” for “RPMI-8866”, “1920” for “1420”

T2 sequence (P05556 21-798, one chain of several): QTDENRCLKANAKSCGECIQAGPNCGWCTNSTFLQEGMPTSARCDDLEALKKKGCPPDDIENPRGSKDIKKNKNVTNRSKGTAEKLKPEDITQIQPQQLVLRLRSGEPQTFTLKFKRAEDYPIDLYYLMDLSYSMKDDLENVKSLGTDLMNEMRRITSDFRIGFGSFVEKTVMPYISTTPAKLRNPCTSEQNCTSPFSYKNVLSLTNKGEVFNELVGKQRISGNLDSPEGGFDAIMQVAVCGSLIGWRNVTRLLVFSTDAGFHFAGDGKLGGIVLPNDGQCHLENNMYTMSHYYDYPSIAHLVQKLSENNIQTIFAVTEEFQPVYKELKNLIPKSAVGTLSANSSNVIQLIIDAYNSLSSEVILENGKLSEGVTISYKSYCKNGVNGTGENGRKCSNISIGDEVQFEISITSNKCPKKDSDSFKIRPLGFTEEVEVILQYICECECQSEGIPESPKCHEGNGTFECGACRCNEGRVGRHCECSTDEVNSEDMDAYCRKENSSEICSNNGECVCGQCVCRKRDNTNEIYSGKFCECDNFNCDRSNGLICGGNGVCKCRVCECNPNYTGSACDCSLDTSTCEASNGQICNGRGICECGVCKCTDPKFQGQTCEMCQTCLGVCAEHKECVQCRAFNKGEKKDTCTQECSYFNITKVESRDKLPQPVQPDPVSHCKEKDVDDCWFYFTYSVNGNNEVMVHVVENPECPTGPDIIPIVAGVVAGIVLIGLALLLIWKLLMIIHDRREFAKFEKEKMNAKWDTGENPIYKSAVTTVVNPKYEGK

For `Cn1c(=O)n(-c2ccc(C[C@H](NC(=O)c3c(Cl)cccc3Cl)C(=O)O)cc2)c(=O)c2c(Cl)cccc21` [Example 187], the values for the IC50 on integrin α4β7 and at integrin α4β1 were 3.2 nM and 26 nM, respectively.
As for `O=C(N[C@@H](Cc1ccc(-n2c(=O)[nH]c3ccc(F)cc3c2=O)cc1)C(=O)O)c1c(Cl)cccc1Cl` [Example 52], the figures for the IC50 on integrin α4β7 and on integrin α4β1 were 55.3 nM and 1310 nM, respectively.
For `CCOc1nc2ccccc2c(=O)n1-c1ccc(C[C@H](NC(=O)c2c(Cl)cccc2Cl)C(=O)O)cc1` [Example 37], in that order: 19 nM and 200 nM.
For `CCn1c(=S)n(-c2ccc(C[C@H](NC(=O)c3c(Cl)cccc3Cl)C(=O)O)cc2)c(=O)c2cc([N+](=O)[O-])ccc21` [Example 67], in that order: 2.2 nM and 370 nM.
On to `O=C(N[C@@H](Cc1ccc(-n2c(=O)[nH]c3c(Cl)cccc3c2=O)cc1)C(=O)O)c1c(Cl)cccc1Cl` [Example 45], for which the IC50 is 10.2 nM at integrin α4β7 and 340 nM on integrin α4β1.
With `Cn1c(=O)n(-c2ccc(C[C@H](NC(=O)c3c(Cl)cccc3Cl)C(=O)O)cc2)c(=O)c2ccc(C(F)(F)F)cc21` [Example 185], the IC50 amounted to 2.7 nM on integrin α4β7 and 12 nM on integrin α4β1.
Taken in the same sequence, the figures for `CCN(CC)c1ccc2c(c1)c(=O)n(-c1ccc(C[C@H](NC(=O)c3c(Cl)cccc3Cl)C(=O)O)cc1)c(=O)n2C` [Example 111] were 11 nM and 88 nM.
Turning to `CN1C(=O)N(c2ccc(C[C@H](NC(=O)c3c(Cl)cccc3Cl)C(=O)O)cc2)Cc2ccccc21` [Example 147], the IC50 on integrin α4β7 came out at 6.5 nM; at integrin α4β1, 107 nM.
For `O=C(N[C@@H](Cc1ccc(-n2c(=O)[nH]c3cc(C(F)(F)F)ccc3c2=O)cc1)C(=O)O)c1c(Cl)cccc1Cl` [Example 49], in that order: 62.1 nM and 1180 nM.
`Cn1c(=O)n(-c2ccc(C[C@H](NC(=O)c3c(Cl)cccc3Cl)C(=O)O)cc2)c(=O)c2cc([N+]3(C)CCCC3)ccc21` [Example 113]: the IC50 at integrin α4β7 was found to be 1.6 nM; on integrin α4β1 it was 52 nM.
For `CSc1nc2ccccc2c(=O)n1-c1ccc(C[C@H](NC(=O)c2c(Cl)cccc2Cl)C(=O)O)cc1` [Example 18], in that order: 23 nM and 1900 nM.
Taken in the same sequence, the figures for `Cn1c(=O)n(-c2ccc(C[C@H](NC(=O)c3c(Cl)cccc3Cl)C(=O)O)cc2)c(=O)c2cccnc21` [Example 74] were 2.5 nM and 53 nM.
Taken in the same sequence, the figures for `O=C(N[C@@H](Cc1ccc(-n2c(-c3ccccc3)nc3ccccc3c2=O)cc1)C(=O)O)c1c(Cl)cccc1Cl` [Example 35] were 68 nM and 1700 nM.
Take `Cc1cccc(C)c1C(=O)N[C@@H](Cc1ccc(-n2c(-c3ccccc3)nc3ccccc3c2=O)cc1)C(=O)O` [Example 42]: the IC50 turned out to be 92 nM at integrin α4β7 and 6730 nM at integrin α4β1.
Taken in the same sequence, the figures for `O=C(N[C@@H](Cc1ccc(-n2c(=O)c3cc([N+](=O)[O-])ccc3n(Cc3ccccc3)c2=S)cc1)C(=O)O)c1c(Cl)cccc1Cl` [Example 69] were 2.5 nM and 5630 nM.
Taken in the same sequence, the figures for `CCCCc1nc2ccccc2c(=O)n1-c1ccc(C[C@H](NC(=O)c2c(C)cccc2C)C(=O)O)cc1` [Example 41] were 86 nM and 3410 nM.
Taken in the same sequence, the figures for `O=C(N[C@@H](Cc1ccc(-n2nnc3c(Cl)ccc(Cl)c3c2=O)cc1)C(=O)O)c1c(Cl)cccc1Cl` [Example 81] were 8.6 nM and 72 nM.
With `Cn1c(=O)n(-c2ccc(C[C@H](NC(=O)c3c(Cl)cccc3Cl)C(=O)O)cc2)c(=O)c2cc(N)ccc21` [Example 107], the values for the IC50 at integrin α4β7 and on integrin α4β1 were 1.1 nM and 17 nM, respectively.
Taken in the same sequence, the figures for `Cc1cccc2c(=O)n(-c3ccc(C[C@H](NC(=O)c4c(Cl)cccc4Cl)C(=O)O)cc3)c(=O)[nH]c12` [Example 50] were 7.9 nM and 1770 nM.
For `COc1ccc(C(=O)CSc2nc3ccccc3c(=O)n2-c2ccc(C[C@H](NC(=O)c3c(Cl)cccc3Cl)C(=O)O)cc2)cc1` [Example 23], in that order: 18 nM and 7240 nM.
For `O=C(N[C@@H](Cc1ccc(-n2c(=O)c3cc([N+](=O)[O-])ccc3n(Cc3ccccc3)c2=O)cc1)C(=O)O)c1c(Cl)cccc1Cl` [Example 65], in that order: 7 nM and 330 nM.
As for `COc1ccc2c(=O)n(-c3ccc(C[C@H](NC(=O)c4c(Cl)cccc4Cl)C(=O)O)cc3)c(=O)oc2c1` [Example 139], the IC50 on integrin α4β7 came out at 17 nM; at integrin α4β1, 107 nM.

Usually IC50 stands for the point on the concentration scale where inhibition reaches its midpoint.

The values are drawn from patent US8426588B2, “Phenylalanine derivatives” (Ajinomoto Co, Inc., priority 2000, dated 2013).
